Measurements published in patent US20050267195A1, “Drug composition for blood sugar control” (priority 2002, published 2005).
Structures can show the parent of a compound that is named as a salt.

Legend:
[1] = test system: type II diabetic patients; assay: Clinical study in type II diabetic patients; type: in vivo, human
Description: Using the pharmaceutical composition described in Example 1, a clinical study was conducted in type II diabetic patients under the following conditions.
Test drug and Mode of administration: Every patient orally administered either of a combination selected from the following combination groups (one tablet from each) three times a day just before meals (within 5 minutes before starting meal): • The present invention group: (1)+(4) • Positive control group: (2)+(3) • Positive control group: (3)+(4) • (1) a tablet comprising 10 mg of mitiglinide calcium salt hydrate; • (2) a tablet comprising 0.2 mg of voglibose (chemical name: (+)-1L-[1(OH),2,4,5/3]-5-[2-hydroxy-1-(hydroxymethyl)ethyl]amino-1-C-(hydroxymethyl)-1,2,3,4-cyclohexaneterol); • (3) a placebo tablet of mitiglinide calcium salt hydrate not containing any active ingredient; and • (4) a placebo tablet of voglibose not containing any active ingredient. • Treatment period: 12 weeks • Observation item: The following items were measured before administration, at a certain fixed time after the start of administration and at the completion of administration, and their changes were calculated, or the frequency of adverse drug reactions was calculated, and then evaluated.

healthy male adults = assay: Clinical study on administration timing; type: in vivo, human
Description: Administration timing before taking a meal was evaluated in healthy male adults. Used test drugs were a tablet comprising 10 mg of mitiglinide calcium salt hydrate and a placebo tablet. The tablet comprising 10 mg of mitiglinide calcium salt hydrate was administered at 0.5 min, 5 min, 10 min or 30 min before starting meal (Positive group), while the placebo tablet was administered at 0.5 min before starting meal. After administration, blood glucose levels were measured at starting meal and evaluated.

[2] = in comparison with voglibose and placebo

| Compound | effect on HbA1C value (in words) ([1]; after 4 weeks after the start of administration, in comparison with voglibose and placebo) | frequencies of hypoglycemic symptoms and gastrointestinal disorders (in words) ([1]; human, in vivo) | effect on 1 hour and 2 hour values of postprandial plasma glucose (PPG) (in words) [1, 2] | effect on early morning fasting plasma glucose (FPG) (in words) [1, 2] | blood glucose level at starting meal (in words) (healthy male adults; administered at 30 minutes before starting meal) | blood glucose level at starting meal (in words) (healthy male adults; administrated within 10 minutes before starting meal) | Change in 2 hour value of PPG, mean value ([1]; final evaluation, three times a day just before meals, 12 weeks) | effect on HbA1C value (in words) ([1]; in comparison with placebo) |
| --- | --- | --- | --- | --- | --- | --- | --- | --- |
| O=C(O)[C@H](CC(=O)N1C[C@H]2CCCC[C@H]2C1)Cc1ccccc1 [mitiglinide calcium salt hydrate, (+)-monocalcium bis[(2S,3a,7a-cis)-α-benzylhexahydro-γ-oxo-2-isoindolinebutyrate] dihydrate] | significantly lowered HbA1C value | decreased the frequencies of hypoglycemic symptoms and gastrointestinal disorders | significantly lowered 1 hour and 2 hour values of postprandial plasma glucose (PPG) | significantly lowered early morning fasting plasma glucose (FPG) | notably declined | able to maintain good blood glucose level | – | – |
| OCC(CO)N[C@H]1C[C@](O)(CO)[C@@H](O)[C@H](O)[C@H]1O [voglibose, (+)-1L-[1(OH),2,4,5/3]-5-[2-hydroxy-1-(hydroxymethyl)ethyl]amino-1-C-(hydroxymethyl)-1,2,3,4-cyclohexaneterol, reference compound] | – | – | – | – | – | – | -5.1 mg/dL | significantly lowered HbA1C value |
